Data set [1] concerns Bacillus subtilis No. 10707. Put plainly: Minimum inhibitory concentration, agar dilution method. It counts as cell-based. The conditions noted are these: pH 7. Here is the method: (§1) (A) Minimum inhibitory concentration against various microorganisms (MIC μg/ml)
(§2) The antibacterial activity was measured by the agar dilution method, using a medium (pH 7) prepared by dissolving 3 g of Bacto-Tryptone (Manufacturedby Difco Co., Ltd.), 3 g of meat extract, 1 g of yeast extract, 1 g of glucose and 16 g of agar in 1 l of water.
(In agar dilution, organisms are placed on agar that contains the substance at set levels.)

Data set [2] concerns Escherichia coli ATCC 26. The data set is described as above. The class given is cell-based. The conditions noted are these: ATCC26, pH 7. As for the experimental part:
as §1, §2

The subject of data set [3] is Klebsiella pneumoniae ATCC 10031. The description is as above. The class given is cell-based. Conditions: ATCC10031, pH 7. Here is the method:
as §1, §2

The test system of data set [4] is Salmonella typhi ATCC 9992. Described as above. It counts as cell-based. Conditions: Salmonella enterica, pH 7. As for the experimental part: as §1, §2
The subject of data set [5] is Shigella sonnei ATCC 9290. Described as above. It counts as cell-based. Conditions: ATCC9290, pH 7. As for the experimental part: as §1, §2
Data set [6] has as its system Staphylococcus aureus ATCC 6538P. Described as above. The conditions noted are these: ATCC6538P, pH 7. It counts as cell-based. Here is the method:
as §1, §2

Data set [7] is described as follows: Acute toxicity. The conditions noted are these: mouse, in vivo, ip; intraperitoneal administration to mice.
The test system of data set [8] is Sarcoma 180 solid tumor. It counts as in vivo, male ddY-strain mice. The conditions noted are these: for Average Tumor Volume / T/C (average tumor volume treated/control): day 10. Here is the method:
(1) Therapeutic effect against Sarcoma 180 solid tumor
Six male ddY-strain mice each having a weight of about 20 g were used for each group as test animals, and 5×10^6 cells of Sarcoma 180 ascites tumor were implanted subcutaneously into the animals at the axilla. 0.2 ml of phosphate buffered saline (hereinafter referred to as PBS) containing DC-88A or DC-89Al at the concentrations shown in Tables 3 and 4 was administered once intraperitoneally 24 hours after implantation.
The composition of PBS was 0.8 g/dl NaCl, 0.02 g/dl KCl, […] Na2 HPO4 and 0.02 g/dl KH2 PO4 (pH 7.2).
The average tumor volume (mm^3) and T/C [T: average tumor volume of the groups treated with the test compound (mm^3), C: that of control group which received an intraperitoneal administration of 0.2 ml of PBS solution (mm^3)] were determined ten days after implantation.
For comparison, 0.2 ml of PBS containing mitomycin C was intraperitoneally administered to a group of animals 24 hours after tumor implantation.

In data set [9] the test system is lymphocytic leukemia P388 tumor. Briefly: Therapeutic effect on lymphocytic leukemia P388 tumor. The class given is in vivo, male CDF1 mice. Here is the method: (2) Therapeutic effect on lymphocytic leukemia P388 tumor
Five male CDF1 mice each having a weight of about 22 g were used for each group as test animals, and 1×10^6 cells of lymphocytic leukemia P388 tumor were implanted intraperitoneally into the test animals. […] The mean survival days after implantation and increased life span (T/C) (T: mean survival days for the treated groups, C: mean survival days for the control group) were calculated.
For comparison, 0.2 ml of PBS solution containing mitomycin C was intraperitoneally administered to a group of animals 24 hours after tumor implantation.

Data set [10] can be described thus: Solubility. It counts as physicochemical.
The mark [11] stands for this setting: methanol, ethanol, acetone, chloroform, ethyl acetate, DMSO.

≈ marks a conversion by molar mass, not a printed value. Like-named read-outs stand apart in the source and are kept apart here.

The values below come from US4923990A, “Pyrindamycins A and B and duocarmycin A antibiotics derived from certain streptomyces culture” (priority 1986, dated 1990).

One may read the MIC as the lowest concentration that inhibits growth of the organism. A word on the LD50: it is the dose at which mortality reaches 50%. Read a low LD50 as greater toxicity.

`COC(=O)C1(C)NC2=C(C1=O)C13CC1CN(C(=O)c1cc4cc(OC)c(OC)c(OC)c4[nH]1)C3=CC2=O` (stereo not drawn) [DC-88A, duocarmycin A]: the MIC in data set [1] came to 0.05 µg/mL (≈ 0.0985 µM); in data set [2] it was 20 µg/mL (≈ 39.4 µM); in data set [3], 0.5 µg/mL (≈ 0.985 µM); in data set [4], 10 µg/mL (≈ 19.7 µM); in data set [5] it was 40 µg/mL (≈ 78.8 µM); in data set [6] it was 0.05 µg/mL (≈ 0.0985 µM). For the same compound, in data set [7], the LD50 is around 0.94 mg/kg. The “Average Tumor Volume” value in [8] (0.195 mg/kg ip once 24 h after implantation, control 2124.7) is 1104.8 mm^3; in data set [8] (0.39 mg/kg ip once 24 h after implantation, control 2124.7), 849.9 mm^3; in data set [8] (0.78 mg/kg ip once 24 h after implantation, control 2124.7), 467.4 mm^3. Besides, the entries for the “T/C (average tumor volume treated/control)” value in data set [8] (0.195 mg/kg ip once), in data set [8] (0.39 mg/kg ip once) and in data set [8] (0.78 mg/kg ip once) were 0.52, 0.40 and 0.22, respectively. The “Increased Life Span (T/C)” value is reported as 1.43 in data set [9] (0.024 mg/kg, continuous administration for five days); 1.08 in data set [9] (0.098 mg/kg ip once); 1.15 in [9] (0.195 mg/kg ip once); 1.14 in [9] (0.39 mg/kg ip once); 1.12 in data set [9] (0.78 mg/kg ip once). Besides, the “Mean Survival Days” value was 15.7 days in data set [9] (0.024 mg/kg, continuous administration for five days, control 11.0); 11.9 days in data set [9] (0.098 mg/kg ip once 24 h after implantation, control 11.0); 12.7 days in data set [9] (0.195 mg/kg ip once 24 h after implantation, control 11.0); 12.5 days in data set [9] (0.39 mg/kg ip once 24 h after implantation, control 11.0); 12.3 days in data set [9] (0.78 mg/kg ip once 24 h after implantation, control 11.0). The Solubility result is given as “Soluble” in [10] (setting [11]); “sparingly soluble” in data set [10] (water and hexane (n-hexane)).
In the case of `COC(=O)C1(C)Nc2c(O)cc3c(c2C1=O)CC(Cl)CN3C(=O)c1cc2cc(OC)c(OC)c(OC)c2[nH]1` (stereo not drawn) [DC-89Al, duocarmycin Cl], the MIC is 0.07 µg/mL (≈ 0.129 µM) in data set [1]; above 100 µg/mL in data set [2]; 4.2 µg/mL (≈ 7.72 µM) in data set [3]; above 100 µg/mL in data set [4]; above 8.4 µg/mL in data set [6]. This compound also came in with a 50% lethal dose (LD50) in data set [7] of around 1.17 mg/kg. In [8] (0.78125 mg/kg ip once 24 h after implantation, control 1828.0), the “Average Tumor Volume” value is 1409.5 mm^3. In addition, in data set [8] (0.78125 mg/kg ip once), the “T/C (average tumor volume treated/control)” value was 0.77. Also, in data set [8] (1.5625 mg/kg ip once 24 h after implantation), the “Toxic (printed in column Average Tumor Volume)” value is recorded as “Toxic”. In addition, the “Increased Life Span (T/C)” value in [9] (0.125 mg/kg ip once) is 1.28; in data set [9] (0.25 mg/kg ip once), 1.38; in data set [9] (0.5 mg/kg ip once) it was 1.40; in [9] (1 mg/kg ip once) it was 1.23. Moreover, the “Mean Survival Days” value in data set [9] (0.125 mg/kg ip once 24 h after implantation, control 10.7) was found to be 13.8 days; in [9] (0.25 mg/kg ip once 24 h after implantation, control 10.7), 14.8 days; in data set [9] (0.5 mg/kg ip once 24 h after implantation, control 10.7), 15.0 days; in data set [9] (1 mg/kg ip once 24 h after implantation, control 10.7), 13.2 days. Moreover, the Solubility entry in data set [10] (setting [11]) is given as “readily soluble”; in data set [10] (water and hexane (n-hexane)), “sparingly soluble”.
For the compound `CO[C@@]12[C@H](COC(N)=O)C3=C(C(=O)C(C)=C(N)C3=O)N1C[C@@H]1N[C@@H]12` [Mitomycin C, mitomycin C, reference compound], the “Average Tumor Volume” value in data set [8] (6 mg/kg ip 24 h after implantation, control 1828.0) is recorded as 499.6 mm^3. In data set [8] (6 mg/kg ip), the “T/C (average tumor volume treated/control)” value is reported as 0.27. Moreover, the “Increased Life Span (T/C)” value in [9] (6.0 mg/kg ip) amounted to 1.60. Further, the “Mean Survival Days” value in [9] (6.0 mg/kg ip 24 h after implantation, control 10.7) amounted to 17.2 days.
